Tested on: male rats (Sprague-Dawley from Tuck's)
Experiment: hypocholesterolaemic and hypotriglyceridaemic effects in rats fed a sucrose-rich semisynthetic diet containing 0.25% cholesterol
Format: in vivo
Conditions: percentage change from control values, compound at 0.1% in diet for 7 days
Experimental: The hypocholesterolaemic and hypotriglyceridaemic effects of 6-amino-9-[(2-hydroxy-3-thiomorpholino)propyl]purine (Compound 1) and 6-amino-9-([2-hydroxy-3-(2,6-cis-dimethylmorpholino)]propyl)-purine (Compound 2) were assessed as follows.
Groups of 8 male rats (Sprague-Dawley from Tuck's) weighing 80-100g were adapted to a sucrose-rich semisynthetic diet containing 0.25% cholesterol by progressive dilution over 7 days of a powdered commercially available diet (Oxoid). Compounds were then added to the semisynthetic diet at the level of 0.1% and these diets were fed for 7 days. The rats were then killed and the serum total cholesterol and triglyceride were measured by a Technicon Auto-Analyser. The results are expressed as percentage change from control values.

Liver wt. as % body wt.: +1%
SMILES: Nc1ncnc2c1ncn2CC(O)CN1CCSCC1 (stereo not drawn) [Compound 1, 6-amino-9-[(2-hydroxy-3-thiomorpholino)propyl]-purine]
Serum Triglyceride (* = statistically significant): -8 percentage
Serum Cholesterol (serum total cholesterol, * = statistically significant): -57* percentage
